Assay results published in ChEMBL document CHEMBL4837249, “Discovery of Potent Antiallergic Agents Based on an o-Aminopyridinyl Alkynyl Scaffold” (J Med Chem, 2021).
Each block holds one compound with its values, some of them ahead of it. Calls of active or inactive are those of the source. The calls are words filed in the database; no cut-off is given here.

How the values were obtained:
[1] = target: Tyrosine-protein kinase Fyn (Homo sapiens, UniProt P06241); assay: Inhibition of human full length recombinant Fyn by radiometric scintillation counting analysis
Tyrosine-protein kinase Fyn, sequence (P06241 whole entry): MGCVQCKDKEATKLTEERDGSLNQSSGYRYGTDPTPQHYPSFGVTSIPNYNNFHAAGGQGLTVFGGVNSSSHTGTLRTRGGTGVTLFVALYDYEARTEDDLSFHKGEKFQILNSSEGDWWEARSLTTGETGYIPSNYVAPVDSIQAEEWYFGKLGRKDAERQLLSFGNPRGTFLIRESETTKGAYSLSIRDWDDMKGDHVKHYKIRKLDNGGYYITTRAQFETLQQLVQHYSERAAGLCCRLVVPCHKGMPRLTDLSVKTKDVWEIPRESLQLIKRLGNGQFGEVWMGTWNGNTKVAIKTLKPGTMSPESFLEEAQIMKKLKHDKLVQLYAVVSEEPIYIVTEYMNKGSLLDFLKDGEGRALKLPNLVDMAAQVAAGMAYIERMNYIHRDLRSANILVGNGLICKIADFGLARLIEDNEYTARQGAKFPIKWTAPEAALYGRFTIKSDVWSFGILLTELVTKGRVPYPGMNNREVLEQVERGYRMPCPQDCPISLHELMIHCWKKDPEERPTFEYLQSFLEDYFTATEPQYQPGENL

[2] = target: Tyrosine-protein kinase SYK (Rattus norvegicus) (UniProt Q64725); assay: Inhibition of Syk phosphorylation in rat RBL-2H3 cells assessed as inhibition of Fc epsilonRI-mediated signal transduction by Western blot analysis; assay type: cell-based; settings: dose 8-200 nM
[3] = target: 1-phosphatidylinositol 4,5-bisphosphate phosphodiesterase gamma-1 (Rattus norvegicus) (UniProt P10686); assay: Inhibition of PLCgamma1 phosphorylation in rat RBL-2H3 cells assessed as inhibition of Fc epsilonRI-mediated signal transduction by Western blot analysis; assay type: cell-based; settings: dose 8-200 nM
1-phosphatidylinositol 4,5-bisphosphate phosphodiesterase gamma-1 (Rattus norvegicus), sequence (P10686 whole entry): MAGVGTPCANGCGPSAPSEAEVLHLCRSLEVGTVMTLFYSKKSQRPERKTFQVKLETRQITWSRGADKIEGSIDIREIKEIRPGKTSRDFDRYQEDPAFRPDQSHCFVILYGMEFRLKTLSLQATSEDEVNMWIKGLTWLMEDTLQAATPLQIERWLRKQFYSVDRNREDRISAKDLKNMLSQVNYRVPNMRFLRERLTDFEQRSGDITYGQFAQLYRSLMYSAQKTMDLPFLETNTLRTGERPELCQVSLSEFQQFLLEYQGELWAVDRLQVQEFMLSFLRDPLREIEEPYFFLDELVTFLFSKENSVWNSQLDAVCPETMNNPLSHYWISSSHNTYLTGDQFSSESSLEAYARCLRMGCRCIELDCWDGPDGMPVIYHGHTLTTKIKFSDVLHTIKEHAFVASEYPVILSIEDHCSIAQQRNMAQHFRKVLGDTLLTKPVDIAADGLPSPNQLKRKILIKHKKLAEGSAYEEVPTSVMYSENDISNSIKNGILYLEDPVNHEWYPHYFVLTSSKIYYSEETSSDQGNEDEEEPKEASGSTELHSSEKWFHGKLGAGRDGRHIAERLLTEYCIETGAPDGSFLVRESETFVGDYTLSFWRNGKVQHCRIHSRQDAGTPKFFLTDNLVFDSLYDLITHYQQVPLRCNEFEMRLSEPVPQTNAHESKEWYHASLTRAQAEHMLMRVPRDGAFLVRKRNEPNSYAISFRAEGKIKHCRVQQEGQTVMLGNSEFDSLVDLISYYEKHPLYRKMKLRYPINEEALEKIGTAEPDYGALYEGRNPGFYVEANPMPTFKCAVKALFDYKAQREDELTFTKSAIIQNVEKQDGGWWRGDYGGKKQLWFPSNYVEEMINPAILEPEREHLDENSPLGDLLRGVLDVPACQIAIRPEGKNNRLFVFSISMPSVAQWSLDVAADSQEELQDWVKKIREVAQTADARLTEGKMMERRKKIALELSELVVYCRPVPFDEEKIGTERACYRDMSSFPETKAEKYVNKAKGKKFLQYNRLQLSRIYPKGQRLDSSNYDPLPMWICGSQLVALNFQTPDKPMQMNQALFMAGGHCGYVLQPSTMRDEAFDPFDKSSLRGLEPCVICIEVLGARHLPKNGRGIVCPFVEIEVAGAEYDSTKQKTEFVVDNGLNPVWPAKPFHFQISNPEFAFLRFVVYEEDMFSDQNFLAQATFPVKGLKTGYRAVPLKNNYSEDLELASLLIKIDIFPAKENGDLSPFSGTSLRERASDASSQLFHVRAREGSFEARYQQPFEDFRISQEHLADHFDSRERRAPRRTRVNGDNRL

RBL-2H3 = assay: Inhibition of p38 MAPK phosphorylation in rat RBL-2H3 cells assessed as inhibition of Fc epsilonRI-mediated signal transduction by Western blot analysis; assay type: cell-based; settings: dose 8-200 nM
[4] = Tmax in BALB/c mouse at 20 mg/kg, po measured up to 24 hrs by LC-MS/MS analysis; assay type: ADME, organism-based; settings: in vivo
[5] = Cmax in BALB/c mouse at 20 mg/kg, po measured up to 24 hrs by LC-MS/MS analysis; assay type: ADME, organism-based; design: route oral, dose 20 mg/kg, time <=24; settings: in vivo
[6] = Clearance in BALB/c mouse at 2 mg/kg, iv measured up to 24 hrs by LC-MS/MS analysis; assay type: ADME, organism-based; settings: in vivo
[7] = MRT in BALB/c mouse at 20 mg/kg, po measured up to 24 hrs by LC-MS/MS analysis; assay type: ADME, organism-based; settings: in vivo
[8] = Half life in BALB/c mouse at 2 mg/kg, iv measured up to 24 hrs by LC-MS/MS analysis; assay type: ADME, organism-based; settings: in vivo
[9] = AUC (0 to t) in BALB/c mouse at 2 mg/kg, iv measured up to 24 hrs by LC-MS/MS analysis; assay type: ADME, organism-based; design: route intravenous, dose 2 mg/kg, time <=24; settings: in vivo
Mus musculus = assay: Antiallergic activity against anti-DNP IgE sensitized passive systemic anaphylaxis-induced BALB/c mouse pulmonary allergic inflammation model assessed as by decrease in body temperature drop at 40 mg/kg, po measured every 5 mins for 60 mins; assay type: functional, organism-based
[10] = Toxicity in anti-DNP IgE sensitized BALB/c mouse assessed as body weight loss at 40 mg/kg, po; assay type: organism-based; settings: in vivo
[11] = Toxicity in anti-DNP IgE sensitized BALB/c mouse assessed as piloerection at 40 mg/kg, po; assay type: organism-based; settings: in vivo
[12] = Toxicity in anti-DNP IgE sensitized BALB/c mouse assessed as vomiting at 40 mg/kg, po; assay type: organism-based; settings: in vivo
[13] = Toxicity in anti-DNP IgE sensitized BALB/c mouse assessed as hemorrhage at 40 mg/kg, po; assay type: organism-based; settings: in vivo
[14] = Toxicity in anti-DNP IgE sensitized BALB/c mouse assessed as death at 40 mg/kg, po; assay type: organism-based; settings: in vivo
[15] = Toxicity in anti-DNP IgE sensitized BALB/c mouse assessed as ascites at 40 mg/kg, po; assay type: organism-based; settings: in vivo
[16] = Toxicity in anti-DNP IgE sensitized BALB/c mouse assessed as splenomegaly at 40 mg/kg, po; assay type: organism-based; settings: in vivo
[17] = target: Mast/stem cell growth factor receptor Kit (Homo sapiens) (UniProt P10721); assay: Inhibition of human recombinant c-Kit at 5 nM by radiometric scintillation counting analysis relative to control
Mast/stem cell growth factor receptor Kit (Homo sapiens), sequence (P10721 whole entry): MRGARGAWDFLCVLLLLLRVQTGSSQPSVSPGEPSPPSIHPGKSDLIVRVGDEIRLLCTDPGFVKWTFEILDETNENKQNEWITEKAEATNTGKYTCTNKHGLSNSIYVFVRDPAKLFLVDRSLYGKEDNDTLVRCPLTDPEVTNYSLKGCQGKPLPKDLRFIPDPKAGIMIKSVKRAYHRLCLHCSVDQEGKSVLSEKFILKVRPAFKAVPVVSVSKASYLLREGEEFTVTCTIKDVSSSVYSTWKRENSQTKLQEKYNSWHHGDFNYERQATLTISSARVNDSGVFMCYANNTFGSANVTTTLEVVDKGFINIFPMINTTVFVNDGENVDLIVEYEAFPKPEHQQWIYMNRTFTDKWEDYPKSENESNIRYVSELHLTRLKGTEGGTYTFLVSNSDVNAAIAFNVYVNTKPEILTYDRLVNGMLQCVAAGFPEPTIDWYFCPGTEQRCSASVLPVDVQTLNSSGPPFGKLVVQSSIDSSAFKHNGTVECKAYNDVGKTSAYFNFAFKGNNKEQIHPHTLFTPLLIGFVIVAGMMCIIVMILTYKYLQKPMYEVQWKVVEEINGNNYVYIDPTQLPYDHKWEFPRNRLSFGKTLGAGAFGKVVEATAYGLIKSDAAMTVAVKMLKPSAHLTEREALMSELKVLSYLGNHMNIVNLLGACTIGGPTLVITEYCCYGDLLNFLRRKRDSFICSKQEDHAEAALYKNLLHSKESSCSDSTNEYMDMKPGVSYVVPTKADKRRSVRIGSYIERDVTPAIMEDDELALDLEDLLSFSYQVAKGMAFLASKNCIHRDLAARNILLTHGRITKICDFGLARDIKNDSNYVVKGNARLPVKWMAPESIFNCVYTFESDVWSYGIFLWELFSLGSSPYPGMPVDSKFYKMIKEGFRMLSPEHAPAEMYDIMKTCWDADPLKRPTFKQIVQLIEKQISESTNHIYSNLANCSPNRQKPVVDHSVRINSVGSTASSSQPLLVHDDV

[18] = target: T1, Tyrosine-protein kinase Tec (Homo sapiens) (UniProt P42680); assay: Inhibition of human recombinant Tec (174 to end) at 5 nM by radiometric scintillation counting analysis relative to control
T1 sequence (whole entry): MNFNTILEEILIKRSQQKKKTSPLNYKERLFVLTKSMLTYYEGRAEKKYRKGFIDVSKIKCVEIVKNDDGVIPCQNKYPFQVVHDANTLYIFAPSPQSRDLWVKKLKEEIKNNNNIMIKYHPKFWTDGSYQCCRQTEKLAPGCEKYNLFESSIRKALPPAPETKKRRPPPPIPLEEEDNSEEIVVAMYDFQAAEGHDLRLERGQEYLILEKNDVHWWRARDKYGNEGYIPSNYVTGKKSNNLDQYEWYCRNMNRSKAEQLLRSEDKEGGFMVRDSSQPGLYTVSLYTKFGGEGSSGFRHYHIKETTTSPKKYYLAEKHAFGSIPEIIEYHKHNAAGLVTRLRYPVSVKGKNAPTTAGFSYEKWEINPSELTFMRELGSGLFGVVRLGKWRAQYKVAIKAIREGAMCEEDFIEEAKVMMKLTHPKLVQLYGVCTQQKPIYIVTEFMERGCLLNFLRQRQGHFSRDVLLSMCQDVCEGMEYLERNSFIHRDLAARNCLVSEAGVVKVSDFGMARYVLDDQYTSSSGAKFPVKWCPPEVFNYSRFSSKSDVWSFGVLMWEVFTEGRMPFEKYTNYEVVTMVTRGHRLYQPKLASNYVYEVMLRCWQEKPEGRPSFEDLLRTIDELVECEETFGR

[19] = target: T2, Tyrosine-protein kinase ITK/TSK (Homo sapiens) (UniProt Q08881); assay: Inhibition of human recombinant ITK (352 to 617) at 50 nM by radiometric scintillation counting analysis relative to control
T2 sequence (whole entry): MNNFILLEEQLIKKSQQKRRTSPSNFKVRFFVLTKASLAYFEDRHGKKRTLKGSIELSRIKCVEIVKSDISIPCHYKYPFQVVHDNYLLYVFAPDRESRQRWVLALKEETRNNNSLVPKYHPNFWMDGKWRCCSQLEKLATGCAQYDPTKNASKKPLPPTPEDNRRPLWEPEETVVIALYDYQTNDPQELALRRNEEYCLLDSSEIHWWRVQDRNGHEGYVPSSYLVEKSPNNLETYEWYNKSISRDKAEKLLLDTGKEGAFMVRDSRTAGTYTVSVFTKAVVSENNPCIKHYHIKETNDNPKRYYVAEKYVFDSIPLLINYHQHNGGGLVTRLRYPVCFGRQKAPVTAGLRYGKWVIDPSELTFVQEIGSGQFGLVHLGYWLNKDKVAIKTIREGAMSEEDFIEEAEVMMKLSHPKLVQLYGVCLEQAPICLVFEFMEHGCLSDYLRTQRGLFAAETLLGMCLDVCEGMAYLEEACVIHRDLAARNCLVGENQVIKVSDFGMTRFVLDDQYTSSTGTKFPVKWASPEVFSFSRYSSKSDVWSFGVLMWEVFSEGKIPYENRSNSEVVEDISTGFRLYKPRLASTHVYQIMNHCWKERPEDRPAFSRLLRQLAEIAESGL

[20] = target: Tyrosine-protein kinase Fgr (Homo sapiens, UniProt P09769); assay: Inhibition of human recombinant FGR (456 to 770) radiometric scintillation counting analysis
Tyrosine-protein kinase Fgr, sequence (P09769 whole entry): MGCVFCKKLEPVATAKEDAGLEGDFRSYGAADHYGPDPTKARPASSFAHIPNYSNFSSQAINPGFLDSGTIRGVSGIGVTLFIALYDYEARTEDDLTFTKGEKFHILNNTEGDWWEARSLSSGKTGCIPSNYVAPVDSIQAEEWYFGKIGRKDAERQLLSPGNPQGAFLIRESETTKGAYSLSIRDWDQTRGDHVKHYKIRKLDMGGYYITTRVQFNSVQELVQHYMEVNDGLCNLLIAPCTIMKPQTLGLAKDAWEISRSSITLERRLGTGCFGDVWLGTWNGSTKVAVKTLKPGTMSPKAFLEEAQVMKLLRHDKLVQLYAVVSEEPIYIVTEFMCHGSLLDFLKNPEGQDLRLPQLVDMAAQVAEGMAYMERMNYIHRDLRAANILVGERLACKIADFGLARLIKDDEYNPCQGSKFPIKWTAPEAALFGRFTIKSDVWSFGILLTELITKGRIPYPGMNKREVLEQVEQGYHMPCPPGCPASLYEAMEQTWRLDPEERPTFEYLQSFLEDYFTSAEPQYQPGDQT

[21] = target: Tyrosine-protein kinase Yes (Homo sapiens, UniProt P07947); assay: Inhibition of human full length recombinant Yes by radiometric scintillation counting analysis
Tyrosine-protein kinase Yes, sequence (P07947 whole entry): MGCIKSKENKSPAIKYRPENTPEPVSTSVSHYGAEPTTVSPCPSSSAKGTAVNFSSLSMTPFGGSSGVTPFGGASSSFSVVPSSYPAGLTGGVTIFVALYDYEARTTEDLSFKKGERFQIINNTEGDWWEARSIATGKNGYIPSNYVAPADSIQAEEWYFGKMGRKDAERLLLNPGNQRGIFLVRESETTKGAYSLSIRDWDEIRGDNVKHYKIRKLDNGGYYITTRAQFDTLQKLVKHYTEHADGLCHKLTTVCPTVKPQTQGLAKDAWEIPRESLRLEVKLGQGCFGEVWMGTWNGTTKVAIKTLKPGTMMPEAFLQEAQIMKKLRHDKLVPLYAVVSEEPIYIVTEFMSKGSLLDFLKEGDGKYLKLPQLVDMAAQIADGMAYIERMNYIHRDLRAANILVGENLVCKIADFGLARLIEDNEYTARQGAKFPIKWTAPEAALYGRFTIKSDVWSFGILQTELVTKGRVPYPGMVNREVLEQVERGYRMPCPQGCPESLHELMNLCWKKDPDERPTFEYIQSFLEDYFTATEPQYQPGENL

[22] = target: Tyrosine-protein kinase Srms (Homo sapiens, UniProt Q9H3Y6); assay: Inhibition of human SRMS by radiometric scintillation counting analysis
Tyrosine-protein kinase Srms, sequence (Q9H3Y6 whole entry): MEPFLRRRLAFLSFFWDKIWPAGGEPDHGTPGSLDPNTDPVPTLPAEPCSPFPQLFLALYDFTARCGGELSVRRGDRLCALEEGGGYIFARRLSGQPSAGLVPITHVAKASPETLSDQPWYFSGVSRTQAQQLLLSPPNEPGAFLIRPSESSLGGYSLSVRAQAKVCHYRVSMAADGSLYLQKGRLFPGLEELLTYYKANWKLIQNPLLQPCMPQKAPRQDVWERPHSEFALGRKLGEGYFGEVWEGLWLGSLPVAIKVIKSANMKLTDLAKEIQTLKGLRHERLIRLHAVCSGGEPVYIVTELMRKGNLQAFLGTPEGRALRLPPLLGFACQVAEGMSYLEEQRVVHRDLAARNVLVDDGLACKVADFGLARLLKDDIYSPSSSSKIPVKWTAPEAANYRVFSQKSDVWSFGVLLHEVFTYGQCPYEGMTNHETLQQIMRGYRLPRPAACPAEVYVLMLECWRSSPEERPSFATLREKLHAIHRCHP

[23] = target: RAC-alpha serine/threonine-protein kinase (Homo sapiens) (UniProt P31749); assay: Inhibition of human recombinant PKBalpha at 5 nM radiometric scintillation counting analysis relative to control
RAC-alpha serine/threonine-protein kinase (Homo sapiens), sequence (P31749 whole entry): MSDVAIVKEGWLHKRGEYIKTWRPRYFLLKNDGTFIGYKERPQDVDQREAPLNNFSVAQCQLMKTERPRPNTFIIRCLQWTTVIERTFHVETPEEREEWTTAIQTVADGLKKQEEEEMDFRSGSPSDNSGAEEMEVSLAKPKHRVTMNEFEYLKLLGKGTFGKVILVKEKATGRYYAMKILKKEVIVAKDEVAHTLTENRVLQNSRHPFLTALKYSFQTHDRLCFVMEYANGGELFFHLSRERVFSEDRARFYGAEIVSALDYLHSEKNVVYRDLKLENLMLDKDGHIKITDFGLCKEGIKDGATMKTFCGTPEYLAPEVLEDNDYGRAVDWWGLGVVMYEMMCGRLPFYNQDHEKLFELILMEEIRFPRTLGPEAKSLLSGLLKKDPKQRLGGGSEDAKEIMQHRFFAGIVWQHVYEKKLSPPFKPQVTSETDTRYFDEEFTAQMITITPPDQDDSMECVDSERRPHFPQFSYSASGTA

SMILES: Cc1ccc(C(=O)Nc2cc(C(F)(F)F)cc(C(F)(F)F)c2)cc1C#Cc1cc(-c2cnn(C)c2)cnc1N
IC50 [1]: 56 nM
inhibition [2]: Dose-Dependent Effect
inhibition [3]: Dose-Dependent Effect
inhibition (RBL-2H3): Dose-Dependent Effect
Tmax [4]: 2.67 h
Cmax [5]: 1940 ng/mL
clearance [6]: 15.2 mL/min/kg
MRT [7]: 11.2 h
half-life [8]: 5.57 h
AUC(0-t) at 24 h [9]: 2130 ng·h/mL
Activity (Mus musculus): Active
Activity [10]: Non-Toxic
Activity [11]: Non-Toxic
Activity [12]: Non-Toxic
Activity [13]: Non-Toxic
Activity [14]: Non-Toxic
Activity [15]: Non-Toxic
Activity [16]: Non-Toxic
inhibition [17]: 7%
inhibition [18]: 1%
inhibition [19]: -1%
IC50 [20]: 41 nM
IC50 [21]: 95 nM
IC50 [22]: 114 nM
inhibition [23]: -5%

inhibition [17]: 13%
SMILES: Cc1ccc(C(=O)Nc2ccc(OC(F)(F)F)cc2)cc1C#Cc1cc(-c2cnn(C)c2)cnc1N

IC50 [1]: 307 nM
inhibition [18]: -5%
inhibition [19]: 3%
IC50 [20]: > 1000 nM
IC50 [21]: > 1000 nM
IC50 [22]: > 1000 nM
inhibition [23]: 4%
SMILES: Cc1ccc(C(=O)Nc2ccc(Cl)cc2Cl)cc1C#Cc1cc(-c2cnn(C)c2)cnc1N
